Laboratory results as given in US20060014723A1, “Anti-parasitic uses of borinic acid complexes” (priority 2004, published 2006).
In brackets after ≈: the same amount, converted by molar mass.

Legend:
[1] = system: Leishmania donovani strain MHOM/ET1671L82; assay: Leishmaniasis in vitro screening model (axenic amastigotes, Alamar Blue); type: cell-based; conditions: for IC50: Leishmania donovani, read-out: L. donovani IC50
Outline: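 Axenic L. donovani amastigotes (10^5 per well) from hamster spleen, grown at 37° C in SM medium pH 5.4 with 10% FBS, 5% CO2, exposed to serial 3-fold compound dilutions (30 to 0.041 μg/mL) for 72 h. Alamar Blue added for 2 h, fluorescence read (ex 536/em 588 nm); IC50 from sigmoidal curve versus control cultures.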

[2] = system: Trypanosoma cruzi Tulahuen C2C4 strain; assay: Chagas disease in vitro screening model (beta-galactosidase strain in L-6 cells); type: cell-based; conditions: for IC50: Trypanosoma cruzi, TULAHUEN, L6, read-out: T. cruzi IC50
Outline: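 L-6 rat myoblasts in RPMI 1640/10% FBS at 37 °C were infected with 5×10^3 lacZ-expressing T. cruzi Tulahuen C2C4 trypomastigotes. CPRG/Nonidet substrate was read at 540 nm, and IC50 came from sigmoidal curves.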

P. falciparum K1 = assay: Malaria in vitro screening model (3H-hypoxanthine incorporation); type: cell-based, Plasmodium falciparum; conditions: for IC50: Plasmodium falciparum, K1
Experimental: […] P. falciparum K1 is used in this study. K1 (a clone originating from Thailand) is resistant to chloroquine and pyrimethamine. The strains are maintained in RPMI 1640 medium with 0.36 mM hypoxanthine, supplemented with 25 mM N 2-hydroxyethyipiperazine-N-2-ethane-sulphonic acid (HEPES), 25 mM NaHCO3, neomycin (100 U/mL) and 5 g/L of ALBUMAX® II (lipid-rich bovine serum albumin, GIBCO, Grand Island, N.Y., USA), together with 5% washed human A+ erythrocytes. All cultures and assays are conducted at 37° C. under an atmosphere of 4% CO2, 3% O2 and 93% N2. Cultures are kept in incubation chambers filled with the gas mixture. Subcultures are diluted to a parasitemia of between 0.1 and 0.5% and the medium is changed daily.
Antimalarial activity is assessed using an adaptation of the procedures described by Desjardins et al. (Antimicrob. Agents Chemother. 16:710-718, 1979), and Matile and Pink (In: Lefkovits, I. and Pernis, B. (Eds.), Immunological Methods Vol. IV, Academic Press, San Diego, pp. 221-234, 1990).
Stock drug solutions are prepared in 100% dimethylsulfoxide (DMSO) at 10 mg/mL, and heated or sonicated if necessary to dissolve the sample. After use, the stocks are kept at −20° C. For the assays, the compound is further diluted in serum-free culture medium and finally to the appropriate concentration in complete medium without hypoxanthine.
Assays are performed in sterile 96-well microtiter plates, each well containing 200 μl of parasite culture (0.15% parasitemia, 2.5% hematocrit) with or without serial drug solutions. Seven 2-fold dilutions are used, covering a range from […] to 0.078 μg/mL. For active compounds the highest concentration is lowered (e.g., to […]); for plant extracts the highest concentration is increased to 50 μg/mL. […] After 48 hours of incubation at 37° C., 0.5 μCi ^3H-hypoxanthine is added to each well. Cultures are incubated for a further 24 h before being harvested onto glass-fiber filters and washed with distilled water. The radioactivity is counted using a Betaplate liquid scintillation counter (Wallac, Zurich, Switzerland). The results are recorded as counts per minute per well at each drug concentration and expressed as percentage of the untreated controls. IC50 values are calculated from the sigmoidal inhibition curves using Microsoft EXCEL.

[3] = system: T. b. rhodesiense STIB 900; assay: African sleeping sickness in vitro screening model (Alamar Blue); type: cell-based, Trypanosoma brucei rhodesiense; conditions: for IC50: Trypanosoma brucei
Outline: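 Bloodstream-form trypomastigotes, 8×10^3/well, were grown in supplemented MEM with 15% horse serum, without hypoxanthine, at 37 °C in 5% CO2. They were exposed for 72 h to seven 3-fold dilutions from 90 to 0.123 μg/mL. Resazurin (Alamar Blue) was added for 2 h, fluorescence read at ex 536/em 588 nm, and IC50 taken as the mean of four values.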

SMILES | IC50 [1] | IC50 [2] | IC50 (P. falciparum K1) | IC50 [3] | L. donovani IC50 [1] | T. cruzi IC50 [2] | P. falciparum IC50 (P. falciparum K1) | T. b. rhodesiense IC50 [3]
Fc1cccc(C=CBOc2cccc3cccnc23)c1 [Compound 39, (3-Fluorophenyl)vinyl borinic acid quinolin-8-yl ester] | 0.34 µg/mL (≈ 1.23 µM) | 1.41 µg/mL (≈ 5.09 µM) | 122 µg/mL (≈ 440 µM) | 0.201 µg/mL (≈ 0.725 µM) | – | – | – | –
Fc1ccc(F)c(B(Oc2cccc3cccnc23)c2ccc(Cl)cc2)c1 [Compound 40, (4-Chlorophenyl)(2,5-difluorophenyl)borinic acid quinolin-8-yl ester] | 0.59 µg/mL (≈ 1.55 µM) | 0.89 µg/mL (≈ 2.34 µM) | 1.72 µg/mL (≈ 4.53 µM) | 0.295 µg/mL (≈ 0.777 µM) | – | – | – | –
COc1ccc(B(Oc2cccc3cccnc23)c2ccc(Cl)cc2)cc1F [Compound 41, (4-Chlorophenyl)(3-fluoro-4-methoxyphenyl)borinic acid quinolin-8-yl ester] | 0.29 µg/mL (≈ 0.74 µM) | 0.935 µg/mL (≈ 2.39 µM) | 1.63 µg/mL (≈ 4.16 µM) | 0.38 µg/mL (≈ 0.97 µM) | – | – | – | –
Fc1cccc(B(Oc2cccc3cccnc23)c2ccc(Cl)cc2)c1F [Compound 42, (4-Chlorophenyl)(2,3-difluorophenyl)borinic acid quinolin-8-yl ester] | 0.43 µg/mL (≈ 1.13 µM) | 1.04 µg/mL (≈ 2.75 µM) | 1.83 µg/mL (≈ 4.82 µM) | 0.47 µg/mL (≈ 1.24 µM) | – | – | – | –
Fc1cccc(B(Oc2cccc3cccnc23)c2ccc(Cl)cc2F)c1 [Compound 43, (4-Chloro-2-fluorophenyl)(3-fluorophenyl)borinic acid quinolin-8-yl ester] | 0.02 µg/mL (≈ 0.0527 µM) | 0.825 µg/mL (≈ 2.17 µM) | 1.83 µg/mL (≈ 4.82 µM) | 0.4 µg/mL (≈ 1.05 µM) | – | – | – | –
Fc1cc(F)cc(B(Oc2cccc3cccnc23)c2ccc(Cl)cc2)c1 [Compound 44, (4-Chlorophenyl)(3,5-difluorophenyl)borinic acid quinolin-8-yl ester] | 0.5 µg/mL (≈ 1.32 µM) | 0.71 µg/mL (≈ 1.87 µM) | 1.87 µg/mL (≈ 4.93 µM) | 0.275 µg/mL (≈ 0.724 µM) | – | – | – | –
COc1cc(B(Oc2cccc3cccnc23)c2cccc(F)c2)ccc1Cl [Compound 45, (4-Chloro-3-methoxyphenyl)(3-fluorophenyl)borinic acid quinolin-8-yl ester] | 0.5 µg/mL (≈ 1.28 µM) | 1.15 µg/mL (≈ 2.92 µM) | 1.84 µg/mL (≈ 4.7 µM) | 0.48 µg/mL (≈ 1.23 µM) | – | – | – | –
Fc1cc(B(Oc2cccc3cccnc23)c2ccc(Cl)cc2)cc(C(F)(F)F)c1 [Compound 47, (4-Chlorophenyl)(3-fluoro-5-trifluoromethylphenyl)borinic acid quinolin-8-yl ester] | 0.51 µg/mL (≈ 1.19 µM) | 1.7 µg/mL (≈ 3.96 µM) | 2.07 µg/mL (≈ 4.82 µM) | 0.5 µg/mL (≈ 1.16 µM) | – | – | – | –
C=CB(Oc1cccc2cccnc12)c1cccnc1 [Compound 49, (3-Pyridyl)vinylborinic acid 8-hydroxyquinoline ester] | – | – | – | – | 0.45 µg/mL | 1.345 µg/mL | 1.58 µg/mL | 0.2185 µg/mL
Nc1cccc(C(=O)OB(c2ccc(Cl)cc2)c2ccc(Cl)cc2)n1 [Compound 50] | – | – | – | – | 0.23 µg/mL | 0.135 µg/mL | 0.6115 µg/mL | 9.45 µg/mL
Cc1ccc(B(OC(=O)c2ncccc2O)c2ccc(C)c(Cl)c2)cc1Cl [Compound 69] | – | – | – | – | 0.22 µg/mL | 3.35 µg/mL | 2.449 µg/mL | 16.5 µg/mL
O=C(OB(c1cccnc1)c1cccc(Cl)c1)c1ncccc1O [Compound 70] | – | – | – | – | 18.3 µg/mL | 28.2 µg/mL | >5 µg/mL | 38.3 µg/mL
COC(=O)c1cccnc1C(=O)OB(c1ccc(C)c(Cl)c1)c1ccc(C)c(Cl)c1 [Compound 73] | – | – | – | – | 0.63 µg/mL | 7.2 µg/mL | 2.997 µg/mL | 21.3 µg/mL
O=C(O)CCCOc1cccnc1C(=O)OB(c1cccc(Cl)c1)c1cccc(Cl)c1 [Compound 75] | – | – | – | – | 0.61 µg/mL | 8.9 µg/mL | 0.494 µg/mL | 31.1 µg/mL
O=C(OB(c1ccc(Cl)cc1)c1ccc(Cl)cc1)c1ncccc1OCCN1CCOCC1 [Compound 76] | – | – | – | – | 2 µg/mL | 4.05 µg/mL | 3.81 µg/mL | 19.8 µg/mL
O=C(OB(c1cccc(Cl)c1)c1cccc(Cl)c1)c1ncccc1OCCN1CCOCC1 [Compound 77] | – | – | – | – | 1.1 µg/mL | 5.15 µg/mL | 1.225 µg/mL | 17.2 µg/mL
Cc1ccc2c(Cl)cc(Cl)c(OB(c3ccc(Cl)cc3)c3ccc(Cl)cc3)c2n1 [Compound 80] | – | – | – | – | 0.12 µg/mL | 1.315 µg/mL | 1.71 µg/mL | 1.06 µg/mL
CC1(C)COC(c2cccc(B(Oc3c(Cl)cc(Cl)c4cccnc34)c3cccc(F)c3)c2)=N1 [Compound 81] | – | – | – | – | 0.18 µg/mL | 4.2 µg/mL | 3.355 µg/mL | 1.9 µg/mL
C=CB(Oc1c(Cl)cc(Cl)c2ccc(C)nc12)c1cccnc1 [Compound 82] | – | – | – | – | 0.22 µg/mL | 1.95 µg/mL | 2.647 µg/mL | 1.19 µg/mL
C=CB(Oc1c(N(C)C)cc(Cl)c2cccnc12)c1ccnc(Cl)c1 [Compound 83] | – | – | – | – | 1.1 µg/mL | 0.77 µg/mL | 0.979 µg/mL | 0.715 µg/mL
C=CB(Oc1c(Cl)cc(Cl)c2ccc(C)nc12)c1cccc(N(C)C)c1 [Compound 84] | – | – | – | – | 0.16 µg/mL | 1.7 µg/mL | 2.364 µg/mL | 0.915 µg/mL
CSc1cccc(B(Oc2cccc3cccnc23)c2cccc(SC)c2)c1 [Compound 87] | – | – | – | – | 0.39 µg/mL | 3.2 µg/mL | 4.632 µg/mL | 0.3 µg/mL
Fc1cc(B(Oc2cccc3cccnc23)c2ccc(Cl)c(F)c2)ccc1Cl [Compound 89] | – | – | – | – | 0.38 µg/mL | 1.36 µg/mL | 1.385 µg/mL | 0.41 µg/mL
C=CB(Oc1cccc2cccnc12)c1cccc(C2=NC(C)(C)CO2)c1 [Compound 93] | – | – | – | – | 0.55 µg/mL | 3.65 µg/mL | 3.034 µg/mL | 0.32 µg/mL
